The source made the active and inactive calls. The calls are words filed in the database; no cut-off is given here. Square brackets hold non-standard residues; d marks the D form. Peptide text beside a SMILES is read from it. pGlu = O=C1CC[C@@H](C(=O)O)N1
What was measured:
[1] = biological target: T1, Integrin alpha-IIb/beta-3 (Oryctolagus cuniculus) (UniProt Q9TUN4+Q9TUN3); assay: Antagonist activity at GP2b/3a receptor in New Zealand rabbit platelet-rich plasma assessed as inhibition of ADP-induced platelet aggregation at 100 uM preincubated for 1 min followed by addition of ADP by aggregometer
[2] = biological target: T1, Integrin alpha-IIb/beta-3 (Oryctolagus cuniculus); assay: Antagonist activity at GP2b/3a receptor in New Zealand rabbit platelet-rich plasma assessed as inhibition of ADP-induced platelet aggregation at 500 uM preincubated for 1 min followed by addition of ADP by aggregometer
Rattus norvegicus [3] = assay: Antithrombotic activity in Sprague-Dawley rat arteriovenous shunt thrombosis model assessed as wet/dry weight reduction of thrombus at 1 mg/kg, iv incubated for 30 mins prior to testing; assay type: functional; set-up: scale not given: the % may be the effect or the level left
Mus musculus [4] = assay: Toxicity in ICR mouse assessed as bleeding time at 1 mg/kg incubated for 30 mins prior to testing by tail transection method; assay type: organism-based; conditions: in vivo, 0.5 h
Mus musculus [5] = assay: Toxicity in ICR mouse assessed as bleeding time at 0.3 mg/kg incubated for 30 mins prior to testing by tail transection method; assay type: organism-based; conditions: in vivo, 0.5 h
Rattus norvegicus [6] = assay: Antithrombotic activity in Sprague-Dawley rat arteriovenous shunt thrombosis model assessed as wet/dry weight reduction of thrombus at 3 mg/kg, iv incubated for 30 mins prior to testing; assay type: functional; set-up: scale not given: the % may be the effect or the level left
Mus musculus [7] = assay: Toxicity in ICR mouse assessed as bleeding time at 3 mg/kg incubated for 30 mins prior to testing by tail transection method; assay type: organism-based; conditions: in vivo, 0.5 h
Rattus norvegicus [8] = assay: Antithrombotic activity in iv dosed Sprague-Dawley rat arteriovenous shunt thrombosis model assessed as wet/dry weight reduction of thrombus incubated for 30 mins prior to testing; assay type: functional, organism-based
[9] = biological target: T1, Integrin alpha-IIb/beta-3 (Oryctolagus cuniculus); conditions: New Zealand, Plasma, 1 to 1000 uM
Description: Antagonist activity at GP2b/3a receptor in New Zealand rabbit platelet-rich plasma assessed as inhibition of ADP-induced platelet aggregation at 1 to 1000 uM preincubated for 1 min followed by addition of ADP by aggregometer

[10] = biological target: Integrin alpha-IIb/beta-3 (Homo sapiens, UniProt P05106+P08514); assay: Antagonist activity at GP2b/3a receptor (unknown origin) assessed as inhibition of interaction with fibrinogen after 2 hrs by ELISA; assay type: protein-complex assay
Sequence of Integrin alpha-IIb/beta-3 (P05106 27-788 limits assumed): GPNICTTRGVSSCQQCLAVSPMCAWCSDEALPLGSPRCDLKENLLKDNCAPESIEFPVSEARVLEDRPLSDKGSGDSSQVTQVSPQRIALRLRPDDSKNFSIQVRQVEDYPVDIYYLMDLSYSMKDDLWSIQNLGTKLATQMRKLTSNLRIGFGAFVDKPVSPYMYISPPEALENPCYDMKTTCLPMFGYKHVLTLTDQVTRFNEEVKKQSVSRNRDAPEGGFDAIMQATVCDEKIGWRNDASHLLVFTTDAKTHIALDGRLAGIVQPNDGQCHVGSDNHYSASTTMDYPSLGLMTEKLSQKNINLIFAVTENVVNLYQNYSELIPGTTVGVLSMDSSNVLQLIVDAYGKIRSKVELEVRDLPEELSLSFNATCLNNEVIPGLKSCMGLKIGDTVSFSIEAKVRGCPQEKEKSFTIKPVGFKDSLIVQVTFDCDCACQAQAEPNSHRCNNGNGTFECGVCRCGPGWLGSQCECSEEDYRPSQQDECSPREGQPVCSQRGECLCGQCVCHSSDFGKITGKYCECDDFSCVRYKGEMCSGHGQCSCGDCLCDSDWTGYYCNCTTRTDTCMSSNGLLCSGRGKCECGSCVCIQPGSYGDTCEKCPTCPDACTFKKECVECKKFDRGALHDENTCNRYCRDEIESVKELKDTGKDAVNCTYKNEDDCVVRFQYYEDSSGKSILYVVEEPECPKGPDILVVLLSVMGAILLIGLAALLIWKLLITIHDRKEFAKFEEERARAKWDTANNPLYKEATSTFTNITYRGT
Sequence of Integrin alpha-IIb/beta-3 (P08514 32-887 limits assumed): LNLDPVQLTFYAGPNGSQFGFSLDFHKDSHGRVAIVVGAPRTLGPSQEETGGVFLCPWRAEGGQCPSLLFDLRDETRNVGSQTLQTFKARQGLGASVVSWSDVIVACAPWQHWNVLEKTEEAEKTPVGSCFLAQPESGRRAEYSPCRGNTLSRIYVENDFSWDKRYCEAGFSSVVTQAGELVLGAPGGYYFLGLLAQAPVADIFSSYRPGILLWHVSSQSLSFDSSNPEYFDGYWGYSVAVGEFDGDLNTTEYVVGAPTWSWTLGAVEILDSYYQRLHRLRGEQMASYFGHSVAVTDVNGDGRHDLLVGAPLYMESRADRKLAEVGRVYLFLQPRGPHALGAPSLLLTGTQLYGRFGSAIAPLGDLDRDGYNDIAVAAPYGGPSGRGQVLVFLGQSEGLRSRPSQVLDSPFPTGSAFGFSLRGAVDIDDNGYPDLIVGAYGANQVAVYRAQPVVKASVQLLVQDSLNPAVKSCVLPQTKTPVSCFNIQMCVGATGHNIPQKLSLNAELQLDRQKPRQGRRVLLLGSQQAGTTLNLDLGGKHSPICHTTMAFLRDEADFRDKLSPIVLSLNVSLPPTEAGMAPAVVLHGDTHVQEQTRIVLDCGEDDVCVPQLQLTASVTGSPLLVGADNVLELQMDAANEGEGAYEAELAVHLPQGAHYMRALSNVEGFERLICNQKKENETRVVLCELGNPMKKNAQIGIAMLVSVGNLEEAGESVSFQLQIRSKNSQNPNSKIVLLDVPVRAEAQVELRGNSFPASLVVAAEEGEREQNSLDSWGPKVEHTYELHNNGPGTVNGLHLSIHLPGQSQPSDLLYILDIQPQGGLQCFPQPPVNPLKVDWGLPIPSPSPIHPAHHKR
Sequence of Integrin alpha-IIb/beta-3 (P08514 891-1039 limits assumed): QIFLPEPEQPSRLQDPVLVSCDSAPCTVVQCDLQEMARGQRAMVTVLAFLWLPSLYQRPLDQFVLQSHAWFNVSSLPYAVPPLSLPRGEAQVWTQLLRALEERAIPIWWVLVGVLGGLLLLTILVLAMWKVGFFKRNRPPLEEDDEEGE

Compound | inhibition [1] [%] | inhibition [2] [%] | further results
O=C(O)[C@H](Cc1c[nH]c2ccc(OCCCCC3CCNCC3)cc12)NS(=O)(=O)c1ccccc1 | 53.8 | 99.2 | 
O=C(N[C@@H](Cc1c[nH]c2ccc(OCCCCC3CCNCC3)cc12)C(=O)O)c1cc(Cl)cc(Cl)c1 | 62.7 |  | 
O=C(O)[C@H](Cc1c[nH]c2ccc(OCCCCC3CCNCC3)cc12)NS(=O)(=O)c1ccc([N+](=O)[O-])cc1 | 45.3 |  | 
O=C(N[C@@H](Cc1c[nH]c2ccc(OCCCN3CCNCC3)cc12)C(=O)O)c1ccccc1 |  | 82.4 | 
O=C(O)[C@H](Cc1c[nH]c2ccc(OCCCCC3CCNCC3)cc12)NS(=O)(=O)c1ccc(Br)cc1 | 81.2 |  | Activity (Rattus norvegicus [3]): 26.6%; Time (Mus musculus [4]): 11.8 min; Time (Mus musculus [5]): 10.6 min; Activity (Rattus norvegicus [6]): 41.7%; Time (Mus musculus [7]): 13.5 min; Activity (Rattus norvegicus [8]): Dose-dependent effect
O=C(N[C@@H](Cc1c[nH]c2ccc(OCCCCN3CCNCC3)cc12)C(=O)O)c1ccccc1 |  | 83.3 | 
CCCC(=O)N[C@@H](Cc1c[nH]c2ccc(OCCCCC3CCNCC3)cc12)C(=O)O |  | 53.3 | 
CCCCS(=O)(=O)N[C@@H](Cc1ccc(OCCCCC2CCNCC2)cc1)C(=O)O [TIROFIBAN] |  |  | Activity (Rattus norvegicus [3]): Active; inhibition [9]: Active; Time (Mus musculus [4]): 17 min
COc1ccc(C(=O)N[C@@H](Cc2c[nH]c3ccc(OCCCCC4CCNCC4)cc23)C(=O)O)cc1 | 38.3 |  | 
CC(=O)N[C@@H](CC(N)=O)C(=O)N[C@@H](Cc1c[nH]c2ccccc12)C(=O)O (Ac-Asn-Trp-OH) |  | 35.2 | 
O=C(O)[C@H](Cc1c[nH]c2ccc(OCCCN3CCNCC3)cc12)NS(=O)(=O)c1ccccc1 |  | 55.3 | 
O=C(N[C@@H](Cc1c[nH]c2ccc(OCCCC3CCNCC3)cc12)C(=O)O)c1ccccc1 |  | 92.7 | 
CCCC(=O)N[C@@H](Cc1c[nH]c2ccc(OCCCCN3CCNCC3)cc12)C(=O)O |  | 79.1 | 
Cc1ccc(S(=O)(=O)N[C@@H](Cc2c[nH]c3ccc(OCCCCC4CCNCC4)cc23)C(=O)O)cc1 | 43.1 |  | 
NC(=O)C[C@H](NC(=O)[C@@H]1CCC(=O)N1)C(=O)N[C@@H](Cc1c[nH]c2ccccc12)C(=O)O ([pGlu]-Asn-Trp-OH) | 21.4 | 38.7 | Activity (Rattus norvegicus [3]): inactive; Activity (Mus musculus [4]): Non-toxic; IC50 [10]: 12.5 µM
CCCCS(=O)(=O)N[C@@H](Cc1c[nH]c2ccc(OCCCCC3CCNCC3)cc12)C(=O)O |  | 52.4 | 
O=C(O)[C@H](Cc1c[nH]c2ccc(OCCCC3CCNCC3)cc12)NS(=O)(=O)c1ccccc1 |  | 94.5 | 
O=C(N[C@@H](Cc1c[nH]c2ccc(OCCCCC3CCNCC3)cc12)C(=O)O)c1ccc(F)cc1 | 54.9 |  | 
CCCC(=O)N[C@@H](Cc1c[nH]c2ccc(OCCN3CCN(C)CC3)cc12)C(=O)O |  | 12.4 | 
CCCCS(=O)(=O)N[C@@H](Cc1c[nH]c2ccc(OCCCN3CCNCC3)cc12)C(=O)O |  | 88.9 | 
CCCC(=O)N[C@@H](Cc1c[nH]c2ccc(OCCN3CCNCC3)cc12)C(=O)O |  | 58.3 | 

Second part, led by results:

inhibition [1] [%] | inhibition [2] [%] | Compound | further results
 | 29.5 | CCCC(=O)N[C@@H](Cc1c[nH]c2ccc(OCCC3CCNCC3)cc12)C(=O)O | 
 | 57.5 | O=C(O)[C@H](Cc1c[nH]c2ccc(OCCCCN3CCNCC3)cc12)NS(=O)(=O)c1ccccc1 | 
27.9 | 96.2 | O=C(N[C@@H](Cc1c[nH]c2ccc(OCCCCC3CCNCC3)cc12)C(=O)O)c1ccccc1 | 
57.1 |  | O=C(O)[C@H](Cc1c[nH]c2ccc(OCCCCC3CCNCC3)cc12)NS(=O)(=O)c1ccc(F)cc1 | 
43.5 |  | O=C(N[C@@H](Cc1c[nH]c2ccc(OCCCCC3CCNCC3)cc12)C(=O)O)c1ccc([N+](=O)[O-])cc1 | 
 | 13.5 | CCCC(=O)N[C@@H](Cc1c[nH]c2ccc(OCCCN3CCN(C)CC3)cc12)C(=O)O | 
53.4 |  | O=C(N[C@@H](Cc1c[nH]c2ccc(OCCCCC3CCNCC3)cc12)C(=O)O)c1cccc(F)c1 | 
 | 71.2 | CCCC(=O)N[C@@H](Cc1c[nH]c2ccc(OCCCC3CCNCC3)cc12)C(=O)O | 
 | 73.3 | CCCCS(=O)(=O)N[C@@H](Cc1c[nH]c2ccc(OCCCC3CCNCC3)cc12)C(=O)O | 
39.3 |  | COc1ccc(S(=O)(=O)N[C@@H](Cc2c[nH]c3ccc(OCCCCC4CCNCC4)cc23)C(=O)O)cc1 | 
 | 51.4 | CC(=O)N[C@@H](CC(N)=O)C(=O)N[C@@H](Cc1c[nH]c2ccc(OCCCC3CCNCC3)cc12)C(=O)O | 
 | 84.3 | CCCC(=O)N[C@@H](Cc1c[nH]c2ccc(OCCCN3CCNCC3)cc12)C(=O)O | 
 | 61.2 | CCCCS(=O)(=O)N[C@@H](Cc1c[nH]c2ccc(OCCCCN3CCNCC3)cc12)C(=O)O | 

Source: ChEMBL document CHEMBL3621042, “Design, synthesis of novel tryptophan derivatives for antiplatelet aggregation activity based on tripeptide pENW (pGlu-Asn-Trp)” (Eur J Med Chem, 2015)
